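Values below derive from 48-hour exposures of cells grown in 96-well plates, with endpoints linearly interpolated between the two concentrations bracketing the appropriate inhibition level. Here, GI50 denotes the concentration required for 50% inhibition of growth.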 The source made the active and inactive calls. Cut-off read from the data, not from the text of the source: active = GI50 up to about 1.1 µM and inactive = higher.
What was measured:
Test in all cases: NCI anticancer screen, dose series, 48 h
XF498 = tested on: XF498
M19-MEL = tested on: M19-MEL
DLD-1 = tested on: DLD-1
HOP-18 = tested on: HOP-18
SNB-78 = tested on: SNB-78
DMS-273 = tested on: DMS-273
KM-20L2 = tested on: KM-20L2
LXFL 529 = tested on: LXFL 529
RXF 631 = tested on: RXF 631

Row | SMILES | GI50 (XF498) | GI50 (M19-MEL) | GI50 (DLD-1) | GI50 (HOP-18) | GI50 (SNB-78) | GI50 (DMS-273) | GI50 (KM-20L2) | GI50 (LXFL 529) | GI50 (RXF 631)
1 | CCOC(=O)Oc1ccc2[nH]c3c(C)cc(N)c(C)c3c2c1 | > 100 µM (inactive) | > 100 µM (inactive) | > 100 µM (inactive) | > 100 µM (inactive) | > 100 µM (inactive) | > 100 µM (inactive) |  |  | 
2 | CCOC(=O)C1=C(OC(OCC)C(C)[Se]c2ccccc2)CCC1 (stereo not given) | 16.1 µM (inactive) | 15.8 µM (inactive) | 19.3 µM (inactive) | 20.8 µM (inactive) | 97.1 µM (inactive) | 10.3 µM (inactive) | 29.2 µM (inactive) | 14.3 µM (inactive) | 
3 | O=P(NCCCO)(OCc1ccccc1)N(CCCl)CCCl (stereo not given) | > 100 µM (inactive) | > 100 µM (inactive) | > 31.6 µM (inactive) | > 39.5 µM (inactive) | > 100 µM (inactive) | > 100 µM (inactive) | > 100 µM (inactive) |  | 
4 | O=C(Nc1cccs1)c1c(O)[nH]c(=S)[nH]c1=O |  |  | > 100 µM (inactive) | > 100 µM (inactive) |  |  | > 100 µM (inactive) |  | > 100 µM (inactive)
5 | O=[N+]([O-])c1cccc2nc3ccccc3c(NCCO)c12 | 0.00135 µM (active) | 0.0021 µM (active) | 0.000277 µM (active) | 0.0056 µM (active) | 0.00533 µM (active) | 0.00918 µM (active) | 0.000121 µM (active) | 0.00285 µM (active) | 
6 | O=C1NC(=S)NC(=O)C1=CC1CC1 | > 100 µM (inactive) | > 100 µM (inactive) | > 100 µM (inactive) | > 100 µM (inactive) | > 100 µM (inactive) | > 100 µM (inactive) | > 100 µM (inactive) | > 100 µM (inactive) | 
7 | C[C@]12CCC(=O)C=C1CC[C@@H]1[C@@H]2[C@@H](O)C[C@@]2(C)[C@H]1CC[C@]2(O)C(=O)COC(=O)CCC1CCCC1 [HYDROCORTISONE CYPIONATE] | > 100 µM (inactive) | > 100 µM (inactive) | > 100 µM (inactive) |  | > 100 µM (inactive) | 61.1 µM (inactive) | > 100 µM (inactive) | > 100 µM (inactive) | 
8 | N=C(N)SCc1cccc([N+](=O)[O-])c1 | 25.1 µM (inactive) | 35.3 µM (inactive) | 27.2 µM (inactive) | 26.9 µM (inactive) | 35.6 µM (inactive) | 30.2 µM (inactive) | 31.7 µM (inactive) |  | 
9 | COC(=O)C(=Cc1cc(OC)c(OC)c(OC)c1-c1cc2c(cc1C(C)=O)OCO2)C(=O)OC | 27.4 µM (inactive) | 34.6 µM (inactive) | 26.1 µM (inactive) | 52.6 µM (inactive) |  | 30.7 µM (inactive) | 34.3 µM (inactive) | 33.8 µM (inactive) | 
10 | CCOc1ccc(/N=N/c2ccc3oc(=O)c(/C(C)=N\NC(=O)CC(=O)Nc4ccc(Cl)cc4)cc3c2)cc1 | 2.07 µM (inactive) | 27.9 µM (inactive) | 12.6 µM (inactive) |  | 27.9 µM (inactive) | 16.3 µM (inactive) | > 100 µM (inactive) | 10.8 µM (inactive) | 20 µM (inactive)
11 | COc1cc2c(c3oc(-c4ccc5c(c4)OCO5)c(O)c(=O)c13)CCC(C)(C)O2 |  | > 100 µM (inactive) | > 100 µM (inactive) | > 100 µM (inactive) | > 100 µM (inactive) | > 100 µM (inactive) |  | 22.9 µM (inactive) | > 100 µM (inactive)
12 | CC(=O)OC1COC(N2C(=O)/C(=N\NC(N)=S)c3cc(Br)ccc32)C(OC(C)=O)C1OC(C)=O (stereo not given) | 37.1 µM (inactive) | 53.5 µM (inactive) | 42.2 µM (inactive) | > 100 µM (inactive) | 53.5 µM (inactive) | 38.5 µM (inactive) | > 100 µM (inactive) | 25.5 µM (inactive) | 
13 | CC(=O)Oc1cc2c(cc1OC(C)=O)OCC(c1ccc(C)cc1)C2 (stereo not given) | 15.4 µM (inactive) | 9.29 µM (inactive) | 21.8 µM (inactive) | 26.9 µM (inactive) | 21.6 µM (inactive) | 19.4 µM (inactive) | 25.1 µM (inactive) |  | 
14 | Cc1ccccc1NC(=O)c1c(C)oc2c1C(=O)c1ccccc1C2=O | 32.2 µM (inactive) | 8.63 µM (inactive) | 33 µM (inactive) |  | 1.86 µM (inactive) | 42 µM (inactive) | 65.5 µM (inactive) | 21.5 µM (inactive) | 
15 | c1cc2c3c(c1)c1cc4c(cc1c[n+]3CC2)OCO4 [ANHYDROLYCORINIUM CHLORIDE] | 4.14 µM (inactive) | 1.33 µM (inactive) | 8.83 µM (inactive) | 9.79 µM (inactive) | 4.06 µM (inactive) | 4.42 µM (inactive) | 3.56 µM (inactive) |  | 
16 | O=C1[C@H]2ON(c3ccccc3)C(c3ccc([N+](=O)[O-])cc3)[C@H]2C(=O)N1c1ccc(Cc2ccc(N3C(=O)[C@@H]4ON(c5ccccc5)C(c5ccc([N+](=O)[O-])cc5)[C@@H]4C3=O)cc2)cc1 (stereo not given in full) |  | > 100 µM (inactive) | > 100 µM (inactive) | > 100 µM (inactive) | > 100 µM (inactive) | > 100 µM (inactive) | > 100 µM (inactive) | 74.6 µM (inactive) | > 100 µM (inactive)
17 | CC(=O)NNc1nc(C)c(C(=O)NNC(=O)C(=O)Nc2c(C)cccc2C(C)C)s1 | > 100 µM (inactive) | > 100 µM (inactive) |  |  | 27.9 µM (inactive) | > 100 µM (inactive) | > 100 µM (inactive) | 46.1 µM (inactive) | 
18 | CC1(c2ccc[n+](Cc3ccccc3)c2)OCCO1 |  | > 100 µM (inactive) | > 100 µM (inactive) | > 100 µM (inactive) | > 100 µM (inactive) | > 100 µM (inactive) | > 100 µM (inactive) | > 100 µM (inactive) | 
19 | Cc1ccccc1/N=N/C(C(=O)c1ccccc1)C(=O)c1ccccc1 | 19.5 µM (inactive) | 17.5 µM (inactive) | 30.8 µM (inactive) |  |  | 18.3 µM (inactive) | 27.7 µM (inactive) | 13.1 µM (inactive) | 34.9 µM (inactive)
20 | Cc1cc(C)n(-c2nsc3ccccc23)n1 |  | > 100 µM (inactive) |  | 15.8 µM (inactive) | > 100 µM (inactive) | > 100 µM (inactive) | > 100 µM (inactive) | > 100 µM (inactive) | 
